Experimental data taken from article PMC10879502, “Linking ATP and allosteric sites to achieve superadditive binding with bivalent EGFR kinase inhibitors” (Communications Chemistry, 2024).

Assays:
[1] = target: ZAK (Homo sapiens, UniProt Q9NYL2); experiment: KINOMEscan; type: binding; settings: 1 μM
[2] = target: RSK2(Kin.Dom.2-C-terminal) (Homo sapiens, UniProt P51812); experiment: KINOMEscan; type: binding; settings: 1 μM
[3] = target: T1, MLK1 (Homo sapiens, UniProt P80192); experiment: KINOMEscan; type: binding; settings: 1 μM
T1 construct: purchased Eurofins DiscoverX Corporation

[4] = target: PFTAIRE2 (Homo sapiens, UniProt Q96Q40); experiment: KINOMEscan; type: binding; settings: 1 μM
[5] = target: T2, LZK (Homo sapiens, UniProt O43283); experiment: KINOMEscan; type: binding; settings: 1 μM
T2 construct: purchased Eurofins DiscoverX Corporation

[6] = target: T3, MINK (Homo sapiens, UniProt Q8N4C8); experiment: KINOMEscan; type: binding; settings: 1 μM
T3 construct: purchased Eurofins DiscoverX Corporation

[7] = target: T4, KIT (Homo sapiens, UniProt P10721); experiment: KINOMEscan; type: binding; settings: 1 μM
T4 construct: purchased Eurofins DiscoverX (KINOMEscan)
T4 sequence (P10721 26-976): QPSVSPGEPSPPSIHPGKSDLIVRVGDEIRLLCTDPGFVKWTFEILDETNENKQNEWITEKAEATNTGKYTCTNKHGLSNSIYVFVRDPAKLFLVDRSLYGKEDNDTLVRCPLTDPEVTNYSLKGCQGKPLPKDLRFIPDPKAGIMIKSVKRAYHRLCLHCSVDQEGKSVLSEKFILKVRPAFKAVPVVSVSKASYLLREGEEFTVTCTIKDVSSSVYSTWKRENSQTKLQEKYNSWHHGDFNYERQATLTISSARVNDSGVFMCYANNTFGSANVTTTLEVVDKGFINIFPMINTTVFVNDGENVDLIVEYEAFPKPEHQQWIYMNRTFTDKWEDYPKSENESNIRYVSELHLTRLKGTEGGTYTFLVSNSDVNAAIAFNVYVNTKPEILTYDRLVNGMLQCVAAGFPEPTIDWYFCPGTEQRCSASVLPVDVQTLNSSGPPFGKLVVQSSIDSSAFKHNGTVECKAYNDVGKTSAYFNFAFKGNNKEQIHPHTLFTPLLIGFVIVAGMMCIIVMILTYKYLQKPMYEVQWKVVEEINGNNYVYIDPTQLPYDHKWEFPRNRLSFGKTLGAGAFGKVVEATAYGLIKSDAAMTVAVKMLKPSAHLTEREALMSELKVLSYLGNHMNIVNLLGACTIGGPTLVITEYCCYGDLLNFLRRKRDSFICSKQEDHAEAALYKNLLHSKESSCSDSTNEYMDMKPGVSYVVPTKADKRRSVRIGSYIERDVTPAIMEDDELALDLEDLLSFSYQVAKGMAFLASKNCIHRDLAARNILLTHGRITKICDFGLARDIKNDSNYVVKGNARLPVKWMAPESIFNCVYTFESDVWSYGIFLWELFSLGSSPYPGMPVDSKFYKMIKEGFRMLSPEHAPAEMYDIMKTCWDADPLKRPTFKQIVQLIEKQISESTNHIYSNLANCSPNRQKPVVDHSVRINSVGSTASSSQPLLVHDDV

[8] = target: BMPR1A (Homo sapiens, UniProt P36894); experiment: KINOMEscan; type: binding; settings: 1 μM
[9] = target: T5, INSRR (Homo sapiens, UniProt P14616); experiment: KINOMEscan; type: binding; settings: 1 μM
T5 construct: purchased Eurofins DiscoverX (KINOMEscan)

[10] = target: T6, ABL1(Y253F)-phosphorylated (Homo sapiens, UniProt P00519, Y253F); experiment: KINOMEscan; type: binding; settings: 1 μM
T6 construct: purchased Eurofins DiscoverX Corporation

[11] = target: CDK2 (Homo sapiens, UniProt P24941); experiment: KINOMEscan; type: binding; settings: 1 μM
[12] = target: T7, IKK-alpha (Homo sapiens, UniProt O15111); experiment: KINOMEscan; type: binding; settings: 1 μM
T7 construct: purchased Eurofins DiscoverX (KINOMEscan)

[13] = target: PKN1 (Homo sapiens, UniProt Q16512); experiment: KINOMEscan; type: binding; settings: 1 μM
[14] = target: PIP5K2B (Homo sapiens, UniProt P78356); experiment: KINOMEscan; type: binding; settings: 1 μM
[15] = target: WNK2 (Homo sapiens, UniProt Q9Y3S1); experiment: KINOMEscan; type: binding; settings: 1 μM
[16] = target: T8, IRAK3 (Homo sapiens, UniProt Q9Y616); experiment: KINOMEscan; type: binding; settings: 1 μM
T8 construct: purchased Eurofins DiscoverX (KINOMEscan)

[17] = target: ULK1 (Homo sapiens, UniProt O75385); experiment: KINOMEscan; type: binding; settings: 1 μM
[18] = target: RET (Homo sapiens, UniProt P07949); experiment: KINOMEscan; type: binding; settings: 1 μM
[19] = target: T9, IRAK1 (Homo sapiens, UniProt P51617); experiment: KINOMEscan; type: binding; settings: 1 μM
T9 construct: purchased Eurofins DiscoverX (KINOMEscan)

[20] = target: T10, KIT-autoinhibited (Homo sapiens, UniProt P10721); experiment: KINOMEscan; type: binding; settings: 1 μM
T10 construct: purchased Eurofins DiscoverX Corporation

[21] = target: T11, AAK1 (Homo sapiens, UniProt Q2M2I8); experiment: KINOMEscan; type: binding; settings: 1 μM
T11 construct: purchased Eurofins DiscoverX Corporation

[22] = target: T12, MYLK2 (Homo sapiens, UniProt Q9H1R3); experiment: KINOMEscan; type: binding; settings: 1 μM
T12 construct: purchased Eurofins DiscoverX Corporation
T12 sequence (Q9H1R3 whole entry): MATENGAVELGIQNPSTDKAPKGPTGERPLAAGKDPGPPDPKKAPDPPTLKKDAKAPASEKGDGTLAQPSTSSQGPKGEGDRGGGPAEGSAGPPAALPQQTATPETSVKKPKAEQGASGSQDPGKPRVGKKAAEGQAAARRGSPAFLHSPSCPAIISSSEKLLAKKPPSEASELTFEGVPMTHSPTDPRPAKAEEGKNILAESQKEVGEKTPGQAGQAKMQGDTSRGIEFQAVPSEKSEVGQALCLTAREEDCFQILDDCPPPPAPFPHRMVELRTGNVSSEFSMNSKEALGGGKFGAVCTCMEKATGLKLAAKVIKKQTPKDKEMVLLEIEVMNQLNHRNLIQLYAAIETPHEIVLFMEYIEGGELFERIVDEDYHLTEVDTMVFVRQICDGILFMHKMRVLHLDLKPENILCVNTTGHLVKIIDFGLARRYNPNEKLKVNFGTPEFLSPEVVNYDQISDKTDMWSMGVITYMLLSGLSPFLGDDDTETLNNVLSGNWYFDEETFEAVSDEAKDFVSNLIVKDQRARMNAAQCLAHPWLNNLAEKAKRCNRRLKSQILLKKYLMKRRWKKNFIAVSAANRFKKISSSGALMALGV

[23] = target: NIM1 (Homo sapiens, UniProt Q8IY84); experiment: KINOMEscan; type: binding; settings: 1 μM
[24] = target: T13, KIT(A829P) (Homo sapiens, UniProt P10721, A829P); experiment: KINOMEscan; type: binding; settings: 1 μM
T13 construct: purchased Eurofins DiscoverX (KINOMEscan)
T13 sequence (P10721 26-976 A829P): as the sequence (P10721 26-976) above, with A804P counted along it

[25] = target: RSK4(Kin.Dom.1-N-terminal) (Homo sapiens, UniProt Q9UK32); experiment: KINOMEscan; type: binding; settings: 1 μM
[26] = tested on: FLT3(ITD); experiment: KINOMEscan; type: binding; settings: 1 μM
[27] = tested on: HCC827 cells (exon 19 del); experiment: MTT antiproliferative activity assay; type: cell-based, human
Experimental: (§1) Cells were dosed with inhibitors to a final DMSO 0.5% in triplicate for 37 °C for 72 h. Cellular inhibition of growth was assessed by MTT viability assay according to the manufactures protocol (OZ Biosciences). […] Ba/F3 cells were all cultured in RPMI1640 media with 10% fetal bovine serum and 1% penicillin and streptomycin. The Ba/F3 cell lines were tested negative for Mycoplasma using Mycoplasma Plus PCR Primer Set (Agilent) and were passaged and/or used for no longer than 4 weeks for all experiments. Assay reagents were purchased from MilliporeSigma (Cat# R7017-5G). Ba/F3 cells were plated and treated with increasing concentrations of inhibitors in triplicate for 72 h. Compounds were dispensed using the Tecan D300e Digital Dispenser. […] All experiments were repeated at least 3 times and values were reported as an average with standard deviation.

[28] = tested on: H1975 cells (L858R/T790M); experiment: MTT antiproliferative activity assay; type: cell-based, human
Experimental: as §1

[29] = target: STK33 (Homo sapiens, UniProt Q9BYT3); experiment: KINOMEscan; type: binding; settings: 1 μM
Sequence of STK33 (Q9BYT3 whole entry): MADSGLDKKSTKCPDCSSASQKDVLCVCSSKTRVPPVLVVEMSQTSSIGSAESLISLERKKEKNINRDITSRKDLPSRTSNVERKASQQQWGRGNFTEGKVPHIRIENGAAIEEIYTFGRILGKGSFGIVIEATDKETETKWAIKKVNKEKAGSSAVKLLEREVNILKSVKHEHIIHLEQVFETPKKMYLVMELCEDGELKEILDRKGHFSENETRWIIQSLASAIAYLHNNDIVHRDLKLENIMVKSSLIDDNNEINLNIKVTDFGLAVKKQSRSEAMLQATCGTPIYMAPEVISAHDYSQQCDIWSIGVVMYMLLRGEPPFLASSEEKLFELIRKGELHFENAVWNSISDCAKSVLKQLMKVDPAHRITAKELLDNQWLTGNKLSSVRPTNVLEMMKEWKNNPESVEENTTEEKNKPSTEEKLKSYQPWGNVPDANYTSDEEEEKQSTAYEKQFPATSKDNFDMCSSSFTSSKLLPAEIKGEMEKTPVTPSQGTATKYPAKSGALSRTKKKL

[30] = target: WNK4 (Homo sapiens, UniProt Q96J92); experiment: KINOMEscan; type: binding; settings: 1 μM
[31] = target: FLT3(D835V) (Homo sapiens, UniProt P36888, D835V); experiment: KINOMEscan; type: binding; settings: 1 μM
[32] = target: T14, MYLK (Homo sapiens, UniProt Q15746); experiment: KINOMEscan; type: binding; settings: 1 μM
T14 construct: purchased Eurofins DiscoverX Corporation
T14 sequence (Q15746 whole entry): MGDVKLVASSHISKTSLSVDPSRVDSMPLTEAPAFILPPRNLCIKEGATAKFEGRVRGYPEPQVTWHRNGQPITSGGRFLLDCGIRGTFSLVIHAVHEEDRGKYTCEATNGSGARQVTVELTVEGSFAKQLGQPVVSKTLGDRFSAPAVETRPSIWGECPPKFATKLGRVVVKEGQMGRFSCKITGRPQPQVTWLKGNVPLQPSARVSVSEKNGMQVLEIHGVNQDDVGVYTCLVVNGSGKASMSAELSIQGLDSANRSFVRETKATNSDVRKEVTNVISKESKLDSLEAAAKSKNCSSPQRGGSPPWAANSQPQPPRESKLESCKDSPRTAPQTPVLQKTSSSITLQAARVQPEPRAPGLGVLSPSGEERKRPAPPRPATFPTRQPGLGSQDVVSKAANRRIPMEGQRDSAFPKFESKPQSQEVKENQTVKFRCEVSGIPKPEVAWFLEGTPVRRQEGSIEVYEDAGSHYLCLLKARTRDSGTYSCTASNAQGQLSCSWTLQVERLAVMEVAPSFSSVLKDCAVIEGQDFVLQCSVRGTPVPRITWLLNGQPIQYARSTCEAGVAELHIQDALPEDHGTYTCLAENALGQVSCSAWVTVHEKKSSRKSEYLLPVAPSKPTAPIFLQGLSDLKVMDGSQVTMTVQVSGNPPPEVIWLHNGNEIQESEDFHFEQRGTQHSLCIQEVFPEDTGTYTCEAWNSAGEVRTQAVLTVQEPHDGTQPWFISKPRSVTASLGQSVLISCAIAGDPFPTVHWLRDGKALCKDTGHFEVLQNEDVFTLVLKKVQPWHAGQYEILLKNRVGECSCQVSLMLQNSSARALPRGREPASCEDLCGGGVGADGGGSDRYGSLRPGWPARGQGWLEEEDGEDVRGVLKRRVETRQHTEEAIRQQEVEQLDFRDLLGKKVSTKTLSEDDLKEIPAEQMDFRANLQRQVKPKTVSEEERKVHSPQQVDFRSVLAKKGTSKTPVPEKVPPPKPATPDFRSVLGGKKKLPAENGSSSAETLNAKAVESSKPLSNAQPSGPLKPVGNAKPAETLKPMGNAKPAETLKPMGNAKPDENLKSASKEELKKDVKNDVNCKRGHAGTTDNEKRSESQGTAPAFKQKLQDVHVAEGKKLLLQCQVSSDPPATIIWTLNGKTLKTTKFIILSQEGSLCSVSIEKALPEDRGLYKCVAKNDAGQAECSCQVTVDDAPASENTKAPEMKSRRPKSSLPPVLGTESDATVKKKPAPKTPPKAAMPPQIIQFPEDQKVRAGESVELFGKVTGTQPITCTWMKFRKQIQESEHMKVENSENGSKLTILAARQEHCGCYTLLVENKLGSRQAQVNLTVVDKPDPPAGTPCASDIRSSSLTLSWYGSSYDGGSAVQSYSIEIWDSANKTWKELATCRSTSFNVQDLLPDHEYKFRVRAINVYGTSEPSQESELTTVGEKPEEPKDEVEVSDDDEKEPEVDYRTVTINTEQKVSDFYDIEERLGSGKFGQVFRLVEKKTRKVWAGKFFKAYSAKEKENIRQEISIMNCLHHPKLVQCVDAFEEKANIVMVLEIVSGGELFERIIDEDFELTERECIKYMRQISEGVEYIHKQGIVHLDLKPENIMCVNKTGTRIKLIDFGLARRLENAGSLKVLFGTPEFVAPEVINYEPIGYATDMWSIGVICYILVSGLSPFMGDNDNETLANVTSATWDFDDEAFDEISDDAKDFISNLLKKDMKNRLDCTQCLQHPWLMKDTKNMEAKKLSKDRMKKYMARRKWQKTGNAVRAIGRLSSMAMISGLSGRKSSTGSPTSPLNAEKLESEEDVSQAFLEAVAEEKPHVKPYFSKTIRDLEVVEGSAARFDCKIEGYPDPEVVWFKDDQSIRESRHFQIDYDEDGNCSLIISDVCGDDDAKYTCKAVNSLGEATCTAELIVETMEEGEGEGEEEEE

[33] = target: AMPK-alpha1 (Homo sapiens, UniProt Q13131); experiment: KINOMEscan; type: binding; settings: 1 μM
[34] = target: CDK5 (Homo sapiens, UniProt Q00535); experiment: KINOMEscan; type: binding; settings: 1 μM
[35] = target: PHKG1 (Homo sapiens, UniProt Q16816); experiment: KINOMEscan; type: binding; settings: 1 μM
[36] = target: RPS6KA5(Kin.Dom.1-N-terminal) (Homo sapiens, UniProt O75582); experiment: KINOMEscan; type: binding; settings: 1 μM
Sequence of RPS6KA5(Kin.Dom.1-N-terminal) (O75582 49-318 limits assumed): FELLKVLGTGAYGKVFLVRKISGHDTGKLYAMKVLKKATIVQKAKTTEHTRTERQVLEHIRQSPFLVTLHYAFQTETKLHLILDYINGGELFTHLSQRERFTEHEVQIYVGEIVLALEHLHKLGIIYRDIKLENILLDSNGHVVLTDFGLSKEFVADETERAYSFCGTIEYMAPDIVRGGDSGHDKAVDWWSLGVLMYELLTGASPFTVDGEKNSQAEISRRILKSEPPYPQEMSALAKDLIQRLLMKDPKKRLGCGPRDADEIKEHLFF

[37] = target: EPHA6 (Homo sapiens, UniProt Q9UF33); experiment: KINOMEscan; type: binding; settings: 1 μM
[38] = target: RPS6KA4(Kin.Dom.1-N-terminal) (Homo sapiens, UniProt O75676); experiment: KINOMEscan; type: binding; settings: 1 μM

Sequence of ZAK (Q9NYL2 whole entry): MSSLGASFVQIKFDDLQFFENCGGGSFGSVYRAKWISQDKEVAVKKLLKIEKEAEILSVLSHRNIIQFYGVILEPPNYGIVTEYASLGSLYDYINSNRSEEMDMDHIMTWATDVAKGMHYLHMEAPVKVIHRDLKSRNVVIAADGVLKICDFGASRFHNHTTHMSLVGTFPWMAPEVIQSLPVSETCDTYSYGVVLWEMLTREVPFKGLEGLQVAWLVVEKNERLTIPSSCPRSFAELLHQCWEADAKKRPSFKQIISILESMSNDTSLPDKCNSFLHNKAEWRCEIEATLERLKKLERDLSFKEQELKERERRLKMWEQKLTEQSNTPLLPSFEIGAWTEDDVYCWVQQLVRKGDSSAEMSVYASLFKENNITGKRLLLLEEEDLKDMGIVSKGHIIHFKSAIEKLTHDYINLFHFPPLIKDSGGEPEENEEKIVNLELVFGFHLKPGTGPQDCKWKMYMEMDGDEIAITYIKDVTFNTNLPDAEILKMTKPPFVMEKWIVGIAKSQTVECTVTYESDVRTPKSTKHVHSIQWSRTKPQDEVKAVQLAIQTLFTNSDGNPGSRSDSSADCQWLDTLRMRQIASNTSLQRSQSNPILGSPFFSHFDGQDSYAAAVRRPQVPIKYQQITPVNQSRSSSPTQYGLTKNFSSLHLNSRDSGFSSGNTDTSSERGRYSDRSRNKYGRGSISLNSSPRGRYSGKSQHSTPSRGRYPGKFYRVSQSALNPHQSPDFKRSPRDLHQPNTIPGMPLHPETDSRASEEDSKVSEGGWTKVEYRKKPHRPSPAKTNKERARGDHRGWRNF

C=CC(=O)Nc1ccc(OC)c(Nc2cc(-c3[nH]c(CC)nc3-c3cccc(NC(=O)c4cccc5c4NC(=O)c4ccccc4N5)c3)ccn2)c1 [Compound 4]
POC [1]: 87% of control
POC [2]: 100% of control
POC [3]: 86% of control
POC [4]: 84% of control
POC [5]: 90% of control
POC [6]: 10% of control
POC [7]: 100% of control
POC [8]: 85% of control
POC [9]: 87% of control
POC [10]: 72% of control
POC [11]: 95% of control
POC [12]: 100% of control
POC [13]: 88% of control
POC [14]: 100% of control
POC [15]: 62% of control
POC [16]: 39% of control
POC [17]: 100% of control
POC [18]: 99% of control
POC [19]: 85% of control
POC [20]: 100% of control
POC [21]: 100% of control
POC [22]: 84% of control
POC [23]: 78% of control
POC [24]: 56% of control
POC [25]: 100% of control
POC [26]: 100% of control
less potent than AZD9291 ([27]; HCC827): ~ 60 fold
antiproliferative active concentration ([27]; HCC827, text): 100 to 500 nM
less potent than AZD9291 ([28]; H1975): ~ 60 fold
antiproliferative active concentration ([28]; H1975, text): 100 to 500 nM
POC [29]: 100% of control
POC [30]: 85% of control
POC [31]: 100% of control
POC [32]: 84% of control
POC [33]: 81% of control
POC [34]: 100% of control
POC [35]: 96% of control
POC [36]: 83% of control
POC [37]: 90% of control
POC [38]: 96% of control
